Source: publication PMC8286840, “Identifying SARS-CoV-2 antiviral compounds by screening for small molecule inhibitors of Nsp3 papain-like protease” (Biochemical Journal, 2021)
Counter-ions that a name gives are not always drawn. Like-named read-outs stand apart in the source and are kept apart here.

What was measured:
[1] = target: T1, SARS-CoV-2 PLpro (nsp3 1564–1878) (Severe acute respiratory syndrome coronavirus 2, UniProt P0DTD1); test: biochemical; set-up: FRET-quenched peptide (Pro3) cleavage by PLpro, 10 min pre-incubation, slope over 20 min, normalised to no-compound control; conditions: high concentration screen, read-out: % of control remaining
[2] = target: T1, SARS-CoV-2 PLpro (nsp3 1564–1878); test: biochemical; set-up: FRET-quenched peptide (Pro3) cleavage by PLpro, 10 min pre-incubation, slope over 20 min, normalised to no-compound control; conditions: low concentration screen, read-out: % of control remaining

How did the remaining activity at 3.75 µM ([1]; Well no.=3317) turn out when `CN(N=O)C(=O)N[C@@H](C=O)[C@@H](O)[C@H](O)[C@H](O)CO` [Streptozocin] was run?
Its remaining activity at 3.75 µM is 103%.

And the remaining activity at 1.25 µM ([2]; Well no.=3317)?
The remaining activity at 1.25 µM was 100%.

With `O=C(O)CCC(=O)O` [Succinic acid] as the compound, how does the remaining activity at 3.75 µM ([1]; Well no.=7353) read?
Its remaining activity at 3.75 µM is 106%.

And the remaining activity at 1.25 µM ([2]; Well no.=7353)?
The remaining activity at 1.25 µM was 106%.

`C[N+](C)(C)CCOC(=O)CCC(=O)OCC[N+](C)(C)C` [Succinylcholine chloride] was tested. Which remaining activity at 3.75 µM ([1]; Well no.=1318) did it give?
The remaining activity at 3.75 µM was 103%.

What about the remaining activity at 3.75 µM ([1]; Well no.=6064) of the same compound?
Its remaining activity at 3.75 µM is 96.6%.

And the remaining activity at 1.25 µM ([2]; Well no.=1318)?
Its remaining activity at 1.25 µM is 103%.

What about the remaining activity at 1.25 µM ([2]; Well no.=6064) of the same compound?
The remaining activity at 1.25 µM was 99%.

Which remaining activity at 3.75 µM ([1]; Well no.=2294) does the source give for `C[N+](C)(C)CCOC(=O)CCC(=O)OCC[N+](C)(C)C` [Succinylcholine] here?
The remaining activity at 3.75 µM was 95.9%.

And the remaining activity at 1.25 µM ([2]; Well no.=2294)?
Its remaining activity at 1.25 µM is 90.2%.

With `O=C(O)CCC(=O)Nc1ccc(S(=O)(=O)Nc2nccs2)cc1` [Succinylsulfathiazole] as the compound, how does the remaining activity at 3.75 µM ([1]; Well no.=8034) read?
Its remaining activity at 3.75 µM is 89.7%.

What about the remaining activity at 1.25 µM ([2]; Well no.=8034) of the same compound?
Its remaining activity at 1.25 µM is 89.3%.

Which results are given for `Oc1ccc2ccccc2c1N=Nc1ccc(N=Nc2ccccc2)cc1` [Sudan III]?
remaining activity at 3.75 µM ([1]; Well no.=8024): 93.4%; remaining activity at 1.25 µM ([2]; Well no.=8024): 93.7%

What does the source list for `Nc1ccc(S(=O)(=O)NC(=O)c2ccccc2)cc1` [Sulfabenzamide]?
remaining activity at 3.75 µM ([1]; Well no.=7306): 102%; remaining activity at 1.25 µM ([2]; Well no.=7306): 103%

Which remaining activity at 3.75 µM ([1]; Well no.=7502) does the source give for `NC(=O)NS(=O)(=O)c1ccc(N)cc1` [Sulfacarbamide] here?
The remaining activity at 3.75 µM was 98.8%.

What about the remaining activity at 1.25 µM ([2]; Well no.=7502) of the same compound?
The remaining activity at 1.25 µM was 96.2%.

`CC(=O)NS(=O)(=O)c1ccc(N)cc1` [Sulfacetamide (Sodium)] was tested. Which remaining activity at 3.75 µM ([1]; Well no.=7510) did it give?
Its remaining activity at 3.75 µM is 102%.

And the remaining activity at 1.25 µM ([2]; Well no.=7510)?
Its remaining activity at 1.25 µM is 103%.

For `CC(=O)NS(=O)(=O)c1ccc(N)cc1` [Sulfacetamide Sodium], which remaining activity at 3.75 µM ([1]; Well no.=4740) is on record?
Its remaining activity at 3.75 µM is 106%.

And the remaining activity at 1.25 µM ([2]; Well no.=4740)?
The remaining activity at 1.25 µM was 106%.

For `Nc1ccc(S(=O)(=O)Nc2ccc(Cl)nn2)cc1` [Sulfachloropyridazine], which remaining activity at 3.75 µM ([1]; Well no.=8360) is on record?
The remaining activity at 3.75 µM was 92.1%.

What about the remaining activity at 1.25 µM ([2]; Well no.=8360) of the same compound?
The remaining activity at 1.25 µM was 93.9%.

How did the remaining activity at 3.75 µM ([1]; Well no.=7458) turn out when `Nc1ccc(S(=O)(=O)Nc2cncc(Cl)n2)cc1` [Sulfaclozine (sodium)] was run?
Its remaining activity at 3.75 µM is 93.3%.

What about the remaining activity at 1.25 µM ([2]; Well no.=7458) of the same compound?
Its remaining activity at 1.25 µM is 96.2%.

With `Nc1ccc(S(=O)(=O)Nc2ncccn2)cc1` [Sulfadiazine] as the compound, how does the remaining activity at 3.75 µM ([1]; Well no.=2289) read?
The remaining activity at 3.75 µM was 102%.

And the remaining activity at 3.75 µM ([1]; Well no.=7494)?
The remaining activity at 3.75 µM was 98.3%.

What about the remaining activity at 1.25 µM ([2]; Well no.=2289) of the same compound?
The remaining activity at 1.25 µM was 99.4%.

And the remaining activity at 1.25 µM ([2]; Well no.=7494)?
Its remaining activity at 1.25 µM is 97.4%.

For `COc1cc(NS(=O)(=O)c2ccc(N)cc2)nc(OC)n1` [Sulfadimethoxine], which remaining activity at 3.75 µM ([1]; Well no.=2291) is on record?
The remaining activity at 3.75 µM was 91.8%.

And the remaining activity at 3.75 µM ([1]; Well no.=8358)?
The remaining activity at 3.75 µM was 95.5%.

What about the remaining activity at 1.25 µM ([2]; Well no.=2291) of the same compound?
The remaining activity at 1.25 µM was 93.2%.

And the remaining activity at 1.25 µM ([2]; Well no.=8358)?
Its remaining activity at 1.25 µM is 95.1%.

`COc1ncnc(NS(=O)(=O)c2ccc(N)cc2)c1OC` [Sulfadoxine] was tested. Which remaining activity at 3.75 µM ([1]; Well no.=2287) did it give?
The remaining activity at 3.75 µM was 92.6%.

What about the remaining activity at 3.75 µM ([1]; Well no.=7358) of the same compound?
The remaining activity at 3.75 µM was 98%.

And the remaining activity at 1.25 µM ([2]; Well no.=2287)?
The remaining activity at 1.25 µM was 97%.

And the remaining activity at 1.25 µM ([2]; Well no.=7358)?
The remaining activity at 1.25 µM was 95.6%.

Which remaining activity at 3.75 µM ([1]; Well no.=7348) does the source give for `N=C(N)NS(=O)(=O)c1ccc(N)cc1` [Sulfaguanidine] here?
The remaining activity at 3.75 µM was 93.1%.

What about the remaining activity at 1.25 µM ([2]; Well no.=7348) of the same compound?
The remaining activity at 1.25 µM was 93.5%.

How did the remaining activity at 3.75 µM ([1]; Well no.=8228) turn out when `COc1nccnc1NS(=O)(=O)c1ccc(N)cc1` [Sulfalene] was run?
Its remaining activity at 3.75 µM is 85.7%.

What about the remaining activity at 1.25 µM ([2]; Well no.=8228) of the same compound?
The remaining activity at 1.25 µM was 103%.

`Cc1ccnc(NS(=O)(=O)c2ccc(N)cc2)n1` [Sulfamerazine] was tested. Which remaining activity at 3.75 µM ([1]; Well no.=4941) did it give?
The remaining activity at 3.75 µM was 83.3%.

What about the remaining activity at 3.75 µM ([1]; Well no.=8644) of the same compound?
Its remaining activity at 3.75 µM is 92.4%.

And the remaining activity at 1.25 µM ([2]; Well no.=4941)?
The remaining activity at 1.25 µM was 92.6%.

What about the remaining activity at 1.25 µM ([2]; Well no.=8644) of the same compound?
Its remaining activity at 1.25 µM is 94.8%.

Which results are given for `COc1cnc(NS(=O)(=O)c2ccc(N)cc2)nc1` [Sulfameter]?
remaining activity at 3.75 µM ([1]; Well no.=7406): 100%; remaining activity at 3.75 µM ([1]; Well no.=8236): 88.3%; remaining activity at 1.25 µM ([2]; Well no.=7406): 98.3%; remaining activity at 1.25 µM ([2]; Well no.=8236): 91.9%

For `Cc1cc(C)nc(NS(=O)(=O)c2ccc(N)cc2)n1` [Sulfamethazine], which remaining activity at 3.75 µM ([1]; Well no.=4940) is on record?
The remaining activity at 3.75 µM was 95.8%.

What about the remaining activity at 3.75 µM ([1]; Well no.=7456) of the same compound?
The remaining activity at 3.75 µM was 99.2%.

What about the remaining activity at 1.25 µM ([2]; Well no.=4940) of the same compound?
The remaining activity at 1.25 µM was 96.7%.

What about the remaining activity at 1.25 µM ([2]; Well no.=7456) of the same compound?
The remaining activity at 1.25 µM was 99.7%.

Which results are given for `Cc1nnc(NS(=O)(=O)c2ccc(N)cc2)s1` [Sulfamethizole]?
remaining activity at 3.75 µM ([1]; Well no.=7444): 92.4%; remaining activity at 3.75 µM ([1]; Well no.=8179): 106%; remaining activity at 1.25 µM ([2]; Well no.=7444): 94.6%; remaining activity at 1.25 µM ([2]; Well no.=8179): 108%

For `Cc1cc(NS(=O)(=O)c2ccc(N)cc2)no1` [Sulfamethoxazole], which remaining activity at 3.75 µM ([1]; Well no.=4662) is on record?
Its remaining activity at 3.75 µM is 98.1%.

And the remaining activity at 3.75 µM ([1]; Well no.=7398)?
The remaining activity at 3.75 µM was 107%.

What about the remaining activity at 1.25 µM ([2]; Well no.=4662) of the same compound?
The remaining activity at 1.25 µM was 102%.

`COc1ccc(NS(=O)(=O)c2ccc(N)cc2)nn1` [Sulfamethoxypyridazine] was tested. Which remaining activity at 3.75 µM ([1]; Well no.=7354) did it give?
The remaining activity at 3.75 µM was 99.7%.

What about the remaining activity at 3.75 µM ([1]; Well no.=8613) of the same compound?
The remaining activity at 3.75 µM was 94.7%.

And the remaining activity at 1.25 µM ([2]; Well no.=7354)?
The remaining activity at 1.25 µM was 101%.

What about the remaining activity at 1.25 µM ([2]; Well no.=8613) of the same compound?
Its remaining activity at 1.25 µM is 94.6%.

`COc1cc(NS(=O)(=O)c2ccc(N)cc2)ncn1` [Sulfamonomethoxine] was tested. Which remaining activity at 3.75 µM ([1]; Well no.=7544) did it give?
Its remaining activity at 3.75 µM is 98.5%.

What about the remaining activity at 1.25 µM ([2]; Well no.=7544) of the same compound?
Its remaining activity at 1.25 µM is 98.1%.

Which remaining activity at 3.75 µM ([1]; Well no.=4620) does the source give for `Nc1ccc(S(N)(=O)=O)cc1` [Sulfanilamide] here?
Its remaining activity at 3.75 µM is 108%.

And the remaining activity at 3.75 µM ([1]; Well no.=7540)?
The remaining activity at 3.75 µM was 93.1%.

What about the remaining activity at 1.25 µM ([2]; Well no.=4620) of the same compound?
The remaining activity at 1.25 µM was 106%.

What about the remaining activity at 1.25 µM ([2]; Well no.=7540) of the same compound?
The remaining activity at 1.25 µM was 94.6%.

Which remaining activity at 3.75 µM ([1]; Well no.=1404) does the source give for `Nc1ccc(S(=O)(=O)Nc2ccnn2-c2ccccc2)cc1` [Sulfaphenazole] here?
The remaining activity at 3.75 µM was 99.3%.

And the remaining activity at 3.75 µM ([1]; Well no.=8418)?
Its remaining activity at 3.75 µM is 85.2%.

What about the remaining activity at 1.25 µM ([2]; Well no.=1404) of the same compound?
The remaining activity at 1.25 µM was 104%.

What about the remaining activity at 1.25 µM ([2]; Well no.=8418) of the same compound?
The remaining activity at 1.25 µM was 85.5%.

What does the source list for `Nc1ccc(S(=O)(=O)Nc2cnc3ccccc3n2)cc1` [Sulfaquinoxaline sodium salt]?
remaining activity at 3.75 µM ([1]; Well no.=8124): 100%; remaining activity at 1.25 µM ([2]; Well no.=8124): 103%

What does the source list for `O=C(O)c1cc(/N=N/c2ccc(S(=O)(=O)Nc3ccccn3)cc2)ccc1O` [Sulfasalazine]?
remaining activity at 3.75 µM ([1]; Well no.=2293): 97.5%; remaining activity at 3.75 µM ([1]; Well no.=7312): 101%; remaining activity at 1.25 µM ([2]; Well no.=2293): 96.4%; remaining activity at 1.25 µM ([2]; Well no.=7312): 101%

`Nc1ccc(S(=O)(=O)Nc2nccs2)cc1` [Sulfathiazole (sodium)] was tested. Which remaining activity at 3.75 µM ([1]; Well no.=7404) did it give?
Its remaining activity at 3.75 µM is 102%.

What about the remaining activity at 1.25 µM ([2]; Well no.=7404) of the same compound?
The remaining activity at 1.25 µM was 104%.

Which results are given for `Nc1ccc(S(=O)(=O)Nc2nccs2)cc1` [Sulfathiazole]?
remaining activity at 3.75 µM ([1]; Well no.=4937): 95.6%; remaining activity at 1.25 µM ([2]; Well no.=4937): 98.9%
